Assay results taken from ChEMBL document CHEMBL1150840, “Onnamide F: a new nematocide from a southern Australian marine sponge, Trachycladus laevispirulifer” (2001).
Activity calls are given as the source filed them. The calls are words filed in the database; no cut-off is given here.

Columns and labels:
Saccharomyces cerevisiae = assay: Antifungal activity against Saccharomyces cerevisiae; assay type: functional
Haemonchus contortus [1] = assay: Nematocidal activity against Haemonchus contortus; assay type: functional
Haemonchus contortus [2] = assay: Nematocidal activity against Haemonchus contortus assessed as inhibition of larval development at L1 stage at high concentration; assay type: functional, organism-based
Bacillus subtilis = assay: Antibacterial activity against Bacillus subtilis; assay type: functional, organism-based
Escherichia coli = assay: Antibacterial activity against Escherichia coli; assay type: functional, organism-based

| SMILES | LD99 (Saccharomyces cerevisiae) | LD99 (Haemonchus contortus [1]) | inhibition (Haemonchus contortus [2]) | Activity (Bacillus subtilis) | Activity (Escherichia coli) |
| --- | --- | --- | --- | --- | --- |
| C=C1C[C@](OC)([C@H](O)C(=O)N[C@@H](OC)[C@@H]2C[C@@H](OC)C(C)(C)[C@@H](CC(O)CCC/C=C/C=C/C(=O)OC)O2)O[C@H](C)[C@@H]1C (some centres not stated) [ONNAMIDE F METHYL ESTER] | 5.2 µg/mL | 2.6 µg/mL |  |  |  |
| C=C1C[C@](OC)([C@H](O)C(=O)N[C@@H](OC)[C@@H]2C[C@@H](OC)C(C)(C)[C@@H](CC(O)CCC/C=C/C=C/C(=O)O)O2)O[C@H](C)[C@@H]1C (some centres not stated) [ONNAMIDE F] | 1.4 µg/mL | 5.2 µg/mL | Active | inactive | inactive |
